Experimental data published in US20230150926A1, “CATIONIC LIPIDS FOR LIPID NANOPARTICLE DELIVERY OF THERAPEUTICS TO HEPATIC STELLATE CELLS” (GENEVANT SCIENCES GMBH, priority 2020, published 2023).

Tests used:
[1] = test system: reelin mRNA (RELN), a stellate cell target; assay: Reelin (RELN) mRNA knock-down in liver after IV administration of siRNA LNP (QuantiGene, RELN:GAPD mRNA ratio); format: in vivo, Balb/C mice; conditions: for reelin mRNA knock-down, activity at high dose: 1 mg/kg dose and greater
Description: The lipid solution contained 4 components: a PEG-conjugated lipid, an ionizable lipid, cholesterol, and a phospholipid (e.g., DSPC). Lipid stocks were prepared using the lipid identities and molar ratios as described. The siRNA was diluted in 100 mM acetate, pH 4 buffer to prepare lipid nanoparticles (LNP) at a total lipid to siRNA weight ratio of approximately 10:1 to 20:1. Equal volumes of the lipid and nucleic acid solutions were blended at a flow rate of 400 mL/min through a T-connector, and diluted into PBS, pH 7.4. The ethanol was then removed and the external buffer replaced with Tris/NaCl buffer by dialysis. Following dialysis, the formulations were concentrated using VivaSpin concentrator units (MWCO 100,000) and filtered through a 0.2 µm pore sterile filter. Nucleic acid concentration was determined by the RiboGreen assay. Particle size and polydispersity were determined using a Malvern Nano Series Zetasizer.
Generally, the LNP formulations were injected intravenously at 0.025 mg/kg to female Balb/C mice (5-8 weeks old) to measure activity of the HSC-LNP. Just prior to injection, the siRNA LNP stocks were filtered and diluted down to the required dosing concentration. […] Half the left lateral lobe of the liver was collected into 1.5 mL RNALater and stored at 2-8° C. overnight. The next day, an approximately 20-25 mg piece of liver was homogenized and the liver lysate used in a QuantiGene Assay, testing for relative levels of mouse target mRNA and GAPDH expression. Data from each animal was normalized to the liver weight used in the assay, and then relative to the GAPDH signal; data is reported as the average % knockdown of each group (where the PBS control group is 100% gene expression, 0% knockdown).

[2] = Tolerability assessment: serum liver enzyme levels (ALT/AST) after IV administration of LNP; format: in vivo, Balb/C mice; conditions: FIG. 4; 24 hours following IV administration of LNP; 0.03, 1, 3 mg/kg; relative to comparator lipid
Description: Generally, the LNP formulations were injected intravenously at ~0.03 to 3 mg/kg to female Balb/C mice (5-8 weeks old) to assess tolerability of the HSC-LNP. Just prior to injection, the siRNA LNP stocks were filtered and diluted down to the required dosing concentration. At 2 h post-treatment, blood was collected via tail nicks and processed to plasma (for cytokine analysis by ELISA). At the terminal timepoint (24 h post-dose), blood was collected by cardiac puncture (target ≥ 800 µL) and sent to IDEXX for CRES 15 panel analysis (CBC/Diff & Clin Chem analysis). Briefly, blood (~300 uL) was collected into EDTA microtainer tubes, inverted 10x to mix the K2EDTA whole blood sample, and immediately stored at 4° C. to await same-day shipment to for hematology analysis. The remaining blood volume (~500 uL) was collected into serum separator tubes and inverted 5× to mix the SST sample, then allowed to clot for 1-1.5 h at room temp. The blood samples were centrifuged, and serum was collected for clinical chemistry analysis.

[3] = FIG. 3, 24 hours following IV administration of LNP

Structure (SMILES) | reelin mRNA knock-down, activity at high dose [1, 3] | knock-down as indicated by the RELN:GAPD mRNA ratio ([1]; FIG. 1, 0.1 mg/kg, versus comparator lipid and PBS) | reelin mRNA knock-down, potency relative to comparator lipid ([1]; FIG. 2, 48 hours following IV administration of LNP, Balb/C mice (n=4)) | reelin mRNA knock-down, potency relative to comparator lipid ([1]; FIG. 3, 24 hours following IV administration of LNP, low dose of 0.03 mg/kg) | potency relative to comparator lipid, as restated in the tolerability figure ([1]; FIG. 4 legend, no dose stated) | liver enzyme levels (ALT/AST) in serum [2]
CCCCC/C=C\CCCC(CCC/C=C\CCCCC)C(CCC/C=C\CCCCC)OC(=O)CCCCCN(C)C (stereo not shown) [compound 100, reference compound] | Saturating activity |  |  |  |  | 
CCCCC/C=C\CCCC(=O)OC(CCC/C=C\CCCCC)C(CCC/C=C\CCCCC)OC(=O)CCCCCN(C)C (stereo not shown) [representative lipid of the invention] | Saturating activity | excellent knock-down | equivalent potency to a comparator lipid at 4-fold lower dose | significantly more potent than the comparator lipid | significantly more potent | slightly higher liver enzyme levels relative to the comparator lipid
